Assay results: patent US9416127B2, “Triazole carboxamides and uses thereof” (Hoffmann-La Roche Inc., priority 2012, dated 2016)
Structures can show the parent of a compound that is named as a salt.

How the values were obtained:
[1] = biological target: mouse TAAR1 (Mus musculus (Mouse), UniProt Q923Y8); assay: Radioligand binding assay on mouse TAAR1; conditions: for Ki: mouse TAAR1, HEK-293 membranes, first value of mouse/rat cell
Method: (§1) Construction of TAAR Expression Plasmids and Stably Transfected Cell Lines
(§2) For the construction of expression plasmids the coding sequences of human, rat and mouse TAAR 1 were amplified from genomic DNA essentially as described by Lindemann et al.. The Expand High Fidelity PCR System (Roche Diagnostics) was used with 1.5 mM Mg^2+ and purified PCR products were cloned into pCR2.1-TOPO cloning vector (Invitrogen) following the instructions of the manufacturer. PCR products were subcloned into the pIRESneo2 vector (BD Clontech, Palo Alto, Calif.), and expression vectors were sequence verified before introduction in cell lines.
(§3) HEK293 cells (ATCC # CRL-1573) were cultured essentially as described by Lindemann et al. (2005). For the generation of stably transfected cell lines HEK293 cells were transfected with the pIRESneo2 expression plasmids containing the TAAR coding sequences (described above) with Lipofectamine 2000 (Invitrogen) according to the instructions of the manufacturer, and 24 hrs post transfection the culture medium was supplemented with 1 mg/ml G418 (Sigma, Buchs, Switzerland). After a culture period of about 10 d clones were isolated, expanded and tested for responsiveness to trace amines (all compounds purchased from Sigma) with the cAMP Biotrak Enzyme immunoassay (EIA) System (Amersham) following the non-acetylation EIA procedure provided by the manufacturer.
Radioligand Binding Assay on Mouse TAAR1
(§4) Membrane Preparation and Radioligand Binding.
(§5) HEK-293 cells stably expressing mouse TAAR1 were maintained at 37° C. and 5% CO2 in DMEM high glucose medium, containing fetal calf serum (10%, heat inactivated for 30 min at 56° C.), penicillin/streptomycin (1%), and 375 μg/ml geneticin (Gibco). Cells were released from culture flasks using trypsin/EDTA, harvested, washed twice with ice-cold PBS (without Ca^2+ and Mg^2+), pelleted at 1'000 rpm for 5 min at 4° C., frozen and stored at −80° C. Frozen pellets were suspended in 20 ml HEPES-NaOH (20 mM, pH 7.4) containing 10 mM EDTA and homogenized with a Polytron (PT 6000, Kinematica) at 14'000 rpm for 20 s. The homogenate was centrifuged at 48'000×g for 30 min at 4° C. Subsequently, the supernatant was removed and discarded, and the pellet resuspended in 20 ml HEPES-NaOH (20 mM, pH 7.4) containing 0.1 mM EDTA using the Polytron (20 s at 14'000 rpm). This procedure was repeated and the final pellet resuspended in HEPES-NaOH containing 0.1 mM EDTA and homogenized using the Polytron. Typically, aliquots of 2 ml membrane portions were stored at −80° C. With each new membrane batch the dissociation constant (Kd) was determined via a saturation curve. […] Nonspecific binding was defined as the amount of ^3[H]—(S)-4-[(ethyl-phenyl-amino)-methyl]-4,5-dihydro-oxazol-2-ylamine bound in the presence of 10 μM unlabeled ligand. All compounds were tested at a broad range of concentrations (10 pM to 10 μM) in duplicates. […] The 96 deep well plates were incubated for 1 hr at 4° C. Incubations were terminated by rapid filtration through Unifilter-96 plates (Packard Instrument Company) and glass filters GF/C (Perkin Elmer) presoaked for 1 hr in polyethylenimine (0.3%) and washed 3 times with 1 ml of cold binding buffer. After addition of 45 μl of Microscint 40 (PerkinElmer) the Unifilter-96 plate was sealed and after 1 hr the ratioactivity counted using a TopCount Microplate Scintillation Counter (Packard Instrument Company).

[2] = biological target: rat TAAR1 (Rattus norvegicus (Rat), UniProt Q923Y9); assay: Radioligand binding assay on rat TAAR1; conditions: for Ki: rat TAAR1, HEK-293 membranes, second value of mouse/rat cell
Method: as §1, §2, §3
Radioligand Binding Assay on Rat TAAR1
as §4
as §5, with “rat” for “mouse”, “[…]” for “pM”

Chain of rat TAAR1 (Q923Y9 whole entry): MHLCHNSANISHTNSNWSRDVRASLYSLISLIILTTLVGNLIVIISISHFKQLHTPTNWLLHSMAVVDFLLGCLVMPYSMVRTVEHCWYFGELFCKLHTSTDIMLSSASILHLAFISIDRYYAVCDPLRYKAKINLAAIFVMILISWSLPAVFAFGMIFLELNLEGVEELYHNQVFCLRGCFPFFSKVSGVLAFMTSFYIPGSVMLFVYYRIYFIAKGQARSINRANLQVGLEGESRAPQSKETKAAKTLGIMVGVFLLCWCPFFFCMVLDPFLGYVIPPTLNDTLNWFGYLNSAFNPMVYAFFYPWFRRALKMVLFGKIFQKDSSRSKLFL
Chain of mouse TAAR1 (Q923Y8 whole entry): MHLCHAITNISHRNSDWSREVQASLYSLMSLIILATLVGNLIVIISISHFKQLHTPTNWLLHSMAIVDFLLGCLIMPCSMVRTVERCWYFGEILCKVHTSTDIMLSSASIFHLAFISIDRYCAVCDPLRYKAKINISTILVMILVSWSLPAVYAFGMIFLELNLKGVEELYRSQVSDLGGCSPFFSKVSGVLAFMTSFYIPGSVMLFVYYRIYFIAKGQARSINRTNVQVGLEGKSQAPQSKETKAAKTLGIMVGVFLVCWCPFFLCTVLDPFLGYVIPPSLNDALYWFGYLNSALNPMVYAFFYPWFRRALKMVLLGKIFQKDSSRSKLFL

| SMILES | Ki [1] | Ki [2] | Kd ([1]; mouse TAAR1 membranes, saturation curve, read-out: dissociation constant (Kd) of radioligand) | Kd ([2]; rat TAAR1 membranes, saturation curve, read-out: dissociation constant (Kd) of radioligand) |
| --- | --- | --- | --- | --- |
| Cc1cccc(-n2cc(C(=O)Nc3ccc([C@H]4CNCCO4)cc3)nn2)c1 [Example 24, (S)—N-(4-(Morpholin-2-yl)phenyl)-1-m-tolyl-1H-1,2,3-triazole-4-carboxamide hydrochloride] | 0.0013 µM | 0.0069 µM |  |  |
| COc1cccc(-n2cc(C(=O)Nc3ccc([C@H]4CNCCO4)cc3)nn2)c1 [Example 25, (S)-1-(3-Methoxyphenyl)-N-(4-(morpholin-2-yl)phenyl)-1H-1,2,3-triazole-4-carboxamide hydrochloride] | 0.0014 µM | 0.0092 µM |  |  |
| CCOc1cccc(-n2cc(C(=O)Nc3ccc([C@H]4CNCCO4)cc3)nn2)c1 [Example 26, (S)-1-(3-Ethoxyphenyl)-N-(4-(morpholin-2-yl)phenyl)-1H-1,2,3-triazole-4-carboxamide hydrochloride] | 0.0011 µM | 0.0032 µM |  |  |
| O=C(Nc1ccc([C@H]2CNCCO2)cc1)c1cn(-c2cccc(OC(F)(F)F)c2)nn1 [Example 27, (S)—N-(4-(Morpholin-2-yl)phenyl)-1-(3-(trifluoromethoxy)phenyl)-1H-1,2,3-triazole-4-carboxamide hydrochloride] | 0.0068 µM | 0.0154 µM |  |  |
| O=C(Nc1ccc([C@H]2CNCCO2)cc1)c1cnn(-c2cccc(OC(F)(F)F)c2)n1 [Example 28, (S)—N-(4-(Morpholin-2-yl)phenyl)-2-(3-(trifluoromethoxy)phenyl)-2H-1,2,3-triazole-4-carboxamide hydrochloride] | 0.0034 µM | 0.0156 µM |  |  |
| O=C(Nc1ccc([C@H]2CNCCO2)cc1)c1cn(-c2cccc(OC(F)F)c2)nn1 [Example 29, (S)-1-(3-(Difluoromethoxy)phenyl)-N-(4-(morpholin-2-yl)phenyl)-1H-1,2,3-triazole-4-carboxamide hydrochloride] | 0.0009 µM | 0.0006 µM |  |  |
| COc1cccc(-n2ncc(C(=O)Nc3ccc([C@H]4CNCCO4)cc3)n2)c1 [Example 30, (S)-2-(3-Methoxyphenyl)-N-(4-(morpholin-2-yl)phenyl)-2H-1,2,3-triazole-4-carboxamide hydrochloride] | 0.0032 µM | 0.0082 µM |  |  |
| CCOc1cccc(-n2ncc(C(=O)Nc3ccc([C@H]4CNCCO4)cc3)n2)c1 [Example 31, hydrochloride] | 0.013 µM | 0.107 µM |  |  |
| O=C(Nc1ccc([C@H]2CNCCO2)cc1)c1ncn(-c2ccc(OC(F)F)cc2)n1 [Example 32, (S)-1-(4-(Difluoromethoxy)phenyl)-N-(4-(morpholin-2-yl)phenyl)-1H-1,2,4-triazole-3-carboxamide hydrochloride] | 0.0018 µM | 0.045 µM |  |  |
| O=C(Nc1ccc([C@H]2CNCCO2)cc1)c1cn(-c2ccc(Br)cn2)nn1 [Example 36, (S)-1-(5-Bromopyridin-2-yl)-N-(4-(morpholin-2-yl)phenyl)-1H-1,2,3-triazole-4-carboxamide hydrochloride] | 0.0046 µM | 0.03 µM |  |  |
| CCN(C[C@H]1COC(N)=N1)c1ccccc1 [^3[H]—(S)-4-[(ethyl-phenyl-amino)-methyl]-4,5-dihydro-oxazol-2-ylamine, reference compound] |  |  | ~0.7 nM | ~2.3 nM |
